ChEMBL document CHEMBL1201862, “PubChem BioAssay data set” (2004)
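Following 48 hours of exposure in 96-well plates, responses at five concentrations were used to interpolate endpoints linearly. GI50 is the concentration that inhibits growth by half.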 Calls of active or inactive are those of the source. Rule as the data show it: active = GI50 up to about 1.1 µM and inactive = higher.

How the values were obtained:
Assay in all cases: growth of human tumour cells (NCI), 48 h
[1] = system: U-251
[2] = system: IGROV-1
[3] = system: SF-295
[4] = system: SR
[5] = system: M19-MEL
[6] = system: SK-MEL-28
[7] = system: SN12C
[8] = system: HCC 2998
[9] = system: HL-60
[10] = system: TK-10
[11] = system: UACC-62
[12] = system: CAKI-1
[13] = system: SK-OV-3
[14] = system: MOLT-4
[15] = system: NCI-H460
[16] = system: OVCAR-8
[17] = system: SF-268
[18] = system: SNB-75
[19] = system: PC-3
[20] = system: MDA-MB-435

| Compound | GI50 [1] | GI50 [2] | GI50 [3] | GI50 [4] | GI50 [5] | GI50 [6] | GI50 [7] | GI50 [8] | GI50 [9] | GI50 [10] | GI50 [11] | GI50 [12] | GI50 [13] | GI50 [14] | GI50 [15] | GI50 [16] | GI50 [17] | GI50 [18] | GI50 [19] | GI50 [20] |
| --- | --- | --- | --- | --- | --- | --- | --- | --- | --- | --- | --- | --- | --- | --- | --- | --- | --- | --- | --- | --- |
| Oc1nc(-c2ccccc2)cc(-c2ccccc2O)n1 | 42.2 µM (inactive) | > 100 µM (inactive) | > 100 µM (inactive) | > 100 µM (inactive) | > 100 µM (inactive) | > 100 µM (inactive) | 95.5 µM (inactive) | > 100 µM (inactive) | 79.1 µM (inactive) | > 100 µM (inactive) | 77.3 µM (inactive) | 76.2 µM (inactive) | > 100 µM (inactive) | 67 µM (inactive) | 87.5 µM (inactive) | > 100 µM (inactive) | > 100 µM (inactive) | 43.9 µM (inactive) |  |  |
| CCCN(CCCC(NC(C)=O)C(=O)NCc1ccccc1)C(=O)N(CCCl)N=O (configuration not stated) | 3.53 µM (inactive) | 27 µM (inactive) | 2.66 µM (inactive) | 0.564 µM (active) | 12.2 µM (inactive) | 24.3 µM (inactive) | 15.8 µM (inactive) | 4.4 µM (inactive) | 3.97 µM (inactive) | 37.8 µM (inactive) | 1.04 µM (active) | 17.6 µM (inactive) | 25.7 µM (inactive) | 2.6 µM (inactive) | 0.27 µM (active) | 10.4 µM (inactive) | 1.42 µM (inactive) | 5.58 µM (inactive) | > 100 µM (inactive) | > 100 µM (inactive) |
| O=c1[nH]c2ccccc2cc1C(Cl)=C(Cl)Cl | > 100 µM (inactive) | > 100 µM (inactive) | > 100 µM (inactive) | > 100 µM (inactive) | > 100 µM (inactive) | > 100 µM (inactive) | > 100 µM (inactive) | > 100 µM (inactive) | 53.7 µM (inactive) | > 100 µM (inactive) | > 100 µM (inactive) | > 100 µM (inactive) | > 100 µM (inactive) | > 100 µM (inactive) | > 100 µM (inactive) | > 100 µM (inactive) | > 100 µM (inactive) | 35.2 µM (inactive) |  |  |
| N/C(=N\O)N/N=C/c1ccc(O)c(O)c1 | > 100 µM (inactive) | > 100 µM (inactive) | > 100 µM (inactive) | > 100 µM (inactive) | > 100 µM (inactive) | > 100 µM (inactive) | > 100 µM (inactive) | > 100 µM (inactive) | > 100 µM (inactive) | > 100 µM (inactive) | > 100 µM (inactive) | > 100 µM (inactive) | > 100 µM (inactive) | > 100 µM (inactive) | > 100 µM (inactive) | > 100 µM (inactive) | > 100 µM (inactive) | > 100 µM (inactive) |  |  |
| COc1ccc(C2=C(Cl)c3cc(OC)c(OC)cc3C2Cl)cc1 (configuration not stated) | 13.7 µM (inactive) | 17.4 µM (inactive) | 15.4 µM (inactive) | 3.27 µM (inactive) | 18.2 µM (inactive) | 16 µM (inactive) | 13.5 µM (inactive) | 14.3 µM (inactive) | 3.03 µM (inactive) | 19.7 µM (inactive) | 14.6 µM (inactive) | 15.4 µM (inactive) | 13.6 µM (inactive) | 4.34 µM (inactive) | 9.71 µM (inactive) | 16.5 µM (inactive) | 16 µM (inactive) | 0.499 µM (active) | 12.8 µM (inactive) | 12.3 µM (inactive) |
| CCCCCCCCCCCCCCCC/C(C(=O)OC)=C(/O)C(=O)OCC | > 100 µM (inactive) | > 100 µM (inactive) | > 100 µM (inactive) | 95.3 µM (inactive) | > 100 µM (inactive) | > 100 µM (inactive) | > 100 µM (inactive) | > 100 µM (inactive) | > 100 µM (inactive) | > 100 µM (inactive) | > 100 µM (inactive) | > 100 µM (inactive) | > 100 µM (inactive) | > 100 µM (inactive) | > 100 µM (inactive) | > 100 µM (inactive) | > 100 µM (inactive) | 55 µM (inactive) |  |  |
